Where two headings read alike, the source gives them in different places. Side-chain parts run from the residue outwards. [ ]: non-standard residue; d: D form. The star is where a group is joined. C20 diacid = O=C(O)CCCCCCCCCCCCCCCCCCC(=O)*; Nle = CCCC[C@H](N)C(=O)O; AEEA = NCCOCCOCC(=O)O; Aib = CC(C)(N)C(=O)O

These results are taken from patent US10604555B2, “GIP derivatives and uses thereof” (priority 2018, dated 2020).

Series [1] in a line: Chemical stability: purity loss by LCMS. It is filed as physicochemical. The note with it: 37° C., 4 weeks, 250 μM, pH 7.4. Here is the method: The aim of this study is to determine the chemical stability of GIP derivative compositions. As a measure of stability of the GIP derivative composition, the formation of high molecular weight peptide formation (% HMWP) as a function of time was analysed by size-exclusion chromatography (SEC-MS). Further, the purity loss of the GIP derivative compositions was measured by LCMS. Samples for chemical stability assays were freshly prepared before each assay. […] The pH of the sample was adjusted to the desired value using appropriate amounts of concentrated NaOH and HCl. […] The column oven was kept at 55° C. […] The solvents were pumped from a binary solvent manager system and mixed on the high pressure side in a mixer with a volume of 50 μl. The gradient and flow can be seen in table 4: [table] A Flow-through-needle auto sampler at 8° C. was used to inject 1 μl of each sample. The effluent passed through a tunable UV detector (TUV) tuned to 215 nm. The outlet from the UV detector passed to the electrospray source of the mass spectrometer. The capillary was held at 3 kV and dry nitrogen gas was purged at a flow of 750 I/h and a temperature of 250° C. The source block was kept at 120° C. and the large bore cone was flushed with nitrogen at 50 I/h with standard electrode potentials on the rest of the instrument. The MS was operated in high resolution mode with a nominal resolution of 35000. The ToF analyser was operated in ADC mode with an m/z window from 100-2000.

Series [2] is described as follows: ThT fibrillation assay (physical stability). In kind it is physicochemical. The note with it: 250 μM, pH 7.4, 37° C., 45 hours of incubation. Here is the method: The Thioflavin T assay was performed as outlined in Schlein (2017), AAPS J, 19(2), 397-408.
This has traditionally been measured by visual inspection of the sample. However, that kind of measurement is very cumbersome and depending on the observer. Therefore, the application of a small molecule indicator probe is much more advantageous. Thioflavin T (ThT) is such a probe and has a distinct fluorescence signature when binding to fibrils [Naiki et al. (1989) Anal. Biochem. 177, 244-249; LeVine (1999) Methods. Enzymol. 309, 274-284].
The time course for fibril formation can be described by a sigmoidal curve with the following expression [Nielsen et al. (2001) Biochemistry 40, 6036-6046]:
Here, F is the ThT fluorescence at the time t. The constant t0 is the time needed to reach 50% of maximum fluorescence. The two important parameters describing fibril formation are the lag-time calculated by t0−2τ and the apparent rate constant kapp 1/τ.
Few of those intermediates nucleate to form a template onto which further intermediates may assembly and the fibrillation proceeds. The lag-time corresponds to the interval in which the critical mass of nucleus is built up and the apparent rate constant is the rate with which the fibril itself is formed.
Samples are prepared freshly before each assay. The drug substance was solved with 250 μM of the GIP derivative in 8 mM phosphate, 14 mg/mL propylene glycol, 58 mM phenol, pH 7.4. The pH of the sample was adjusted to the desired value using appropriate amounts of concentrated NaOH and HCl. Thioflavin T was added to the samples from a stock solution in H2O to a final concentration of 1 μM.
Sample aliquots of 200 μl were placed in each well of a 96 well microtiter plate (Packard OptiPlate™-96, white polystyrene). Four replica of each sample (corresponding to one test condition) was placed in one column of wells. The plate was sealed with Scotch Pad (Qiagen).
Incubation, shaking and measurement of the ThT fluorescence emission were done in a Fluoroskan Ascent FL fluorescence platereader (Thermo Labsystems). […] Fluorescence measurement was done using excitation through a 444 nm filter and measurement of emission through a 485 nm filter.
Each run was initiated by incubating the plate at the assay temperature for 10 min. The plate was measured every 20 minutes for a desired period of time. Between each measurement, the plate was shaken and heated as described.
After completion of the ThT assay the replica of each sample was pooled and centrifuged at 20000 rpm for 30 minutes at 18° C. The supernatant was filtered through a 0.22 μm filter and an aliquot was transferred to a HPLC vial. The concentration of the filtered sample relative to the initial sample (in percentage) was reported as the recovery.
The measurement points were saved in Microsoft Excel format for further processing and curve drawing and fitting was performed using GraphPad Prism. […] The data points were a mean of the four replica and shown with standard deviation error bars. Only data obtained in the same experiment (i.e. samples on the same plate) were presented in the same graph ensuring a relative measure of fibrillation between experiments.
The data set may be fitted to Eq. (1).

Series [3] in a line: Chemical stability: HMWP formation by SEC-MS. In kind it is physicochemical. Particulars: 37° C., 4 weeks, 250 μM, pH 7.4. Here is the method: The aim of this study is to determine the chemical stability of GIP derivative compositions. As a measure of stability of the GIP derivative composition, the formation of high molecular weight peptide formation (% HMWP) as a function of time was analysed by size-exclusion chromatography (SEC-MS). Further, the purity loss of the GIP derivative compositions was measured by LCMS. Samples for chemical stability assays were freshly prepared before each assay. […] The pH of the sample was adjusted to the desired value using appropriate amounts of concentrated NaOH and HCl. […] Formation of covalent oligomers (HMWPs) was analysed and identified by a SEC-MS method. […] The LC system was coupled to both a TUV detector operated at 215 nm, 10 Hz and a high resolution QToF mass spectrometer from Waters (Synapt G2S) operated in positive ion mode and m/z range of 100 to 4000 with normal resolution setting. Lock mass correction against Leu-Enkephalin was done every 31 sec. Spectra were processed in MassLynx version 4.1 and MaxEnt deconvoluted.
(Size exclusion chromatography separates by hydrodynamic size, large species first.)

For series [4] the following is noted: cited from earlier work.
The format of series [5] is physicochemical. The note with it: pH 7.4.

Regarding `CC[C@H](C)[C@H](NC(=O)[C@H](CO)NC(=O)[C@H](Cc1ccc(O)cc1)NC(=O)[C@H](CC(=O)O)NC(=O)[C@H](CO)NC(=O)[C@@H](NC(=O)[C@H](Cc1ccccc1)NC(=O)[C@@H](NC(=O)CNC(=O)[C@H](CCC(=O)O)NC(=O)[C@H](C)NC(=O)[C@@H](N)Cc1ccc(O)cc1)[C@@H](C)O)[C@@H](C)CC)C(=O)N[C@@H](C)C(=O)N[C@@H](CCSC)C(=O)N[C@@H](CC(=O)O)C(=O)N[C@@H](CCCCN)C(=O)N[C@H](C(=O)N[C@@H](Cc1c[nH]cn1)C(=O)N[C@@H](CCC(N)=O)C(=O)N[C@@H](CCC(N)=O)C(=O)N[C@@H](CC(=O)O)C(=O)N[C@@H](Cc1ccccc1)C(=O)N[C@H](C(=O)N[C@@H](CC(N)=O)C(=O)N[C@@H](Cc1c[nH]c2ccccc12)C(=O)N[C@@H](CC(C)C)C(=O)N[C@@H](CC(C)C)C(=O)N[C@@H](C)C(=O)N[C@@H](CCC(N)=O)C(=O)N[C@@H](CCCCN)C(=O)NCC(=O)N[C@@H](CCCCN)C(=O)N[C@@H](CCCCN)C(=O)N[C@@H](CC(N)=O)C(=O)N[C@@H](CC(=O)O)C(=O)N[C@@H](Cc1c[nH]c2ccccc12)C(=O)N[C@@H](CCCCN)C(=O)N[C@@H](Cc1c[nH]cn1)C(=O)N[C@@H](CC(N)=O)C(=O)N[C@H](C(=O)N[C@H](C(=O)N[C@@H](CCC(N)=O)C(=O)O)[C@@H](C)O)[C@@H](C)CC)C(C)C)[C@@H](C)CC` [hGIP(1-42), reference compound], the “Purity loss (%/month)” value in series [1] was 73.1 %/month. Besides, in series [2], the “ThT Assay Lag time” value came out at 0.33 h. The “HMWP formation (%/month)” value in series [3] worked out at 2.0 %/month. Further, the “half-life of hGIP(1-42) measured in man” value in series [4] (Deacon et al., J. Clin. Endocrinol. & Metab.) is ~7 min; in series [4] (Meier et al., Diabetes), “about 5 min”.

In the case of “N{1}-acetyl,N{Epsilon-24}-[2-[2-[2-[[2-[2-[2-[[4-[(19-carboxynonadecanoylamino)methyl]cyclohexanecarbonyl]amino]ethoxy]ethoxy]acetyl]amino]ethoxy]ethoxy]acetyl]-[D-Tyr1,Aib2,Nle14,Arg18,Lys24,Pro31]-hGIP(1-31) amide (Ac-[dY][Aib]EGTFISDYSIA[Nle]DKIRQQDFVK([AEEA-AEEA-4‑(aminomethyl)cyclohexanecarbonyl-C20 diacid])WLLAQKP-NH2) [Compound 44]”, in series [5], the “solubility at given pH” value is “**Compound not soluble at given pH”.
